Reference: US20230257430A1, “RECOMBINANT PROTEINS FOR QUANTIFICATION OF PROTEIN LEVELS” (Genentech, Inc., priority 2020, published 2023)
Peptide text beside a SMILES is read from it. * marks the point of attachment. Cbz = O=C(OCc1ccccc1)*; CH2F = FC*

Legend:
Assay type in all cases: cell-based, human
[1] = tested on: A549 cancer cells depleted of RAF1 (CRAF); assay: Soft-agar colony formation assay in A549 cells treated with shCRAF and co-treated with cell death inhibitors; settings: single agent; ZVAD-FMK 20 μM, NEC1 30 μM, Bafilomycin 50 nM
Description: FIG. 12G is a set of photomicrographs showing the results of a soft-agar colony formation assay in A549 cancer cells upon treatment with shCRAF and co-treatment with the indicated inhibitors. […] Cells were co-treated with DMSO or inhibitors for cellular apoptosis (ZVAD-FMK, 20 μM), necroptosis (NEC1, 30 μM) or a combination of both (ZVAD-FMK, 10 μM; NEC1, 10 μM) and an autophagy inhibitor (Bafilomycin, 50 nM).
As ARAF catalytic function inhibits cell growth upon RAF1 (CRAF) loss, mechanisms by which ARAF limits growth of RASK (KRAS) mutant cells were investigated. Given that MAPK inhibition is associated with induction of cellular apoptosis (Yen et al., Cancer Cell, 34: 611-625, 2018), it was hypothesized that RAF1 (CRAF) ablation induces cell death, similar to MAPK inhibition in RASK (KRAS) mutants. […] Additionally, RAF1 (CRAF) ablation in a […] isogenic RASK (KRAS) mutant cell line (HCT116 p21^−/−) rescued cell growth inhibition mediated upon RAF1 (CRAF) loss (FIG. 12A). […] A chemical inhibitor approach was adopted to test whether cell growth inhibition upon RAF1 (CRAF) loss could be rescued by the treatment with apoptosis or autophagic inhibitors. […] Finally, a Gene Set Enrichment Analysis (GSEA) of targets involved in the apoptosis pathway was performed, but no significant enrichment of any apoptosis target gene set was observed upon acute depletion of ARAF, BRAF or RAF1 (CRAF) (FIG. 12I). […] Thus, RAF1 (CRAF) depletion promotes p21-mediated cell cycle arrest in RASK (KRAS) mutant cancer cells. Further, co-depletion of RAF1 (CRAF) and ARAF in RASK (KRAS) mutant cells abrogated the expression levels of p21 (FIG. 4E).

[2] = tested on: A549 parental, ARAF KO, BRAF KO, RAF1 (CRAF) KO cancer cells; assay: Soft agar colony formation growth assay with pan-RAF inhibitor in RAF-depleted RASK (KRAS) mutant cells; settings: 100 nM, 1 μM, 10 μM
Description: FIG. 4J is a set of photomicrographs showing the results of a soft agar colony formation growth assay for A549 cells (parental) or ARAF knockout (KO), BRAF KO, or RAF1 (CRAF) KO cancer cells treated with the pan-RAF inhibitor AZ-628 at 100 nm, 1 μM, and 10 μM concentrations. Colonies were stained with MTT dye and imaged using a GelCount imager.
FIG. 6G is a set of photomicrographs showing the results of a soft agar colony formation growth assay for the indicated cancer cells treated with non-targeting shRNAs (shNT) or shRNA targeting ARAF (shARAF), BRAF (shBRAF), or RAF1 (CRAF) (shCRAF) and treated with the pan-RAF inhibitor AZ-628 at 100 nm, 1 μM, and 10 μM concentrations or a DMSO control.
It was hypothesized that the ratio of RAF1 (CRAF):ARAF versus RAF1 (CRAF):BRAF heterodimers may be important in the growth of RASK (KRAS) mutant tumors, and that this ratio may impact the efficacy of RAF kinase inhibition. To test this hypothesis, RASK (KRAS) mutant cells depleted of individual members of the RAF kinases (ARAF, BRAF or RAF1 (CRAF)) were treated with a pan-RAF dimer inhibitor (AZ-628). […] Taken together, RAF1 (CRAF) dimerization partners appear to dictate sensitivity to MAPK inhibition.

[3] = tested on: CRAF:BRAF and CRAF:ARAF dimers; assay: PIKES targeted analysis (PRM-MS) of immunoprecipitated FLAG-tagged CRAF wild-type; settings: 250 nM, 24 hours
Description: Collected eluates were then combined with 100 fmol of QconCAT reagent and samples were processed similarly to the cell line analysis above for PRM analysis. For PRM analysis, RAW files were loaded onto Skyline (v19.1). A target peptide list was generated from the QconCAT peptides for both unlabeled and heavy-labeled peptides with transition setting filtered for precursor charges 2 and 3, ion charges 1 and 2, and y-ion types. Selected peaks from product ions were reviewed manually. Both MS1 and MS/MS filtering were set to Orbitrap mass analyzer with 60,000 resolving power. Signal was summed for the top three product ions and normalized to the heavy labeled QconCAT internal standard for peptide quantification.

[4] = tested on: A549 RAF1 (CRAF) knockout (CRAF KO) cancer cells; assay: Soft-agar colony formation assay in A549 RAF1 (CRAF) knockout cells with MEK or ERK inhibitor dose titration; settings: for cell survival of RAF1 (CRAF)-depleted cells: increasing the dose; for cell survival of RAF1 (CRAF) ablated RASK (KRAS) mutant cells: low-dose treatment
Excerpt: (§1) FIG. 11F is a set of photomicrographs showing the results of a soft-agar colony formation assay in A549 parental and RAF1 (CRAF) knockout (CRAF KO) cancer cells upon treatment with DMSO or a MEK inhibitor (GDC-0973) at the indicated dose titrations. The colonies were labeled with MTT reagent and imaged using a GelCount imager.
as §1, with “11G” for “11F”, “an ERK” for “a MEK”, “(GDC-0994)” for “(GDC-0973)”
Within the MAPK pathway, expression of BRAF^D631A mutation upon BRAF^wild-type loss induces cellular toxicity which impedes tumor development of RASK (KRAS) mutant lung tumors (Nieto et al., Nature, 548: 239-243, 2017; Yao et al., Nature, 548: 234-238, 2017). Importantly, pharmacological inhibition of ERK rescued tumor growth in this context (Nieto et al., Nature, 548: 239-243, 2017; Yao et al., Nature, 548: 234-238, 2017). […] Thus, oncogenic cellular stress induced by ARAF catalytic activity could be inhibited by low-dose MAPK inhibition, thereby promoting survival of RASK (KRAS) mutant cells.

MAPK signaling = assay: Western blot analysis of MAPK pathway components in RASK (KRAS) mutant cancer cells; settings: 250 nM, 24 hours
RAF1:BRAF heterodimers = assay: Immunoprecipitation of FLAG-tagged RAF1 (CRAF) in A549 RAF1 (CRAF) knockout cells; settings: 250 nM, 24 hours
Excerpt: Eluates were co-immunoprecipitated and blotted with the indicated antibodies.
To test whether RAF1 (CRAF) kinase activity is required for RASK (KRAS) mutant tumor cell growth, knockout cell lines of the three RAF isoforms were generated in a RASK (KRAS) mutant background. […] In the RAF1 (CRAF) knockout RASK (KRAS) mutant cells, stable expression of a panel of RAF1 (CRAF) mutants was established. […] Expression of RAF1 (CRAF) kinase-dead mutants including RAF1^D468N, RAF1^D486A, and RAF1^K375M(CRAF^D468N, CRAF^D486A, and CRAF^K375M) reduced pERK levels compared to cells expressing RAF1^wild-type (CRAF^wild-type) or RAF1^S259A (CRAF^S259A), a mutation which renders the RAF1 (CRAF) kinase constitutively active (FIG. 5C). RAF1 (CRAF) kinase-dead mutants either partially (RAF1^D468N (CRAF^D468N), RAF1^D486A(CRAF^D486A)) or fully (RAF1^K375M (CRAF^K375M)) rescued colony growth in RAF1 (CRAF)-deficient RASK (KRAS) mutant cells (FIGS. 4B and 5D). […] Functionally, the CRAF^K375M mutation completely abrogated MEK phosphorylation compared to CRAF^wild-type, but still rescued colony growth in RAF1-deficient RASK (KRAS) mutant cells (FIGS. 4C and 5C). […] Consistent with this, RAF1 (CRAF) kinase-dead mutants behaved like the RAF1 (CRAF) knockout, and were unable to rescue cell growth inhibition in the presence of MEK inhibitor compared to the cells expressing CRAF^wild-type (FIGS. 5E and 5F). […]

[5] = tested on: ERK downstream substrates (MAPK target gene set); assay: mRNA sequencing of MAPK target gene set in RASK (KRAS) mutant cells; settings: RNA-sequencing
Description: FIG. 2E is a graph showing the log 2 fold change in expression of a MAPK target gene set determined by mRNA sequencing in cancer cells treated with shARAF, shBRAF, or shCRAF. Cells were treated with 0.5 μg/mL doxycycline (DOX) for 72 hours. Cells were treated with a MEK inhibitor (GDC-0973) for 6 hours, 250 nM (n=3) or an ERK inhibitor (GDC-0994). Data are normalized to a non-targeting control (shNT) and DMSO (no DOX).
To confirm sustained MAPK activity in spite of RAF1 (CRAF) depletion, we performed a gene expression analysis for the MAPK downstream effectors DUSP6 and SPRTY upon RAF1 (CRAF) depletion in the examined RASK (KRAS) mutant cells lines. […] In order to delineate pathway alterations upon RAF1 (CRAF) depletion versus MAPK inhibition, RNA-sequencing analysis was performed. […] Thus, RAF kinases compensate to sustain MAPK signaling in comparison to MAPK inhibition.

SMILES	rescue of cell growth in RAF1 (CRAF)-depleted RASK (KRAS) mutant cells [1]	cell survival of RAF1 (CRAF)-depleted cells [4]	cell survival of RAF1 (CRAF) ablated RASK (KRAS) mutant cells [4]	effect on expression of ERK downstream substrates (MAPK target gene set) [5]	also measured
CO/C1=C\C(C)=C\[C@@H](C)[C@@H](O)[C@@H](C)C/C(C)=C/C=C/[C@H](OC)[C@@H]([C@@H](C)[C@@H](O)[C@H](C)[C@@]2(O)C[C@@H](O)[C@H](C)[C@@H](C(C)C)O2)OC1=O [bafilomycin]	did not rescue cell growth				
CN1C(=O)C(Cc2c[nH]c3ccccc23)NC1=S (centres unmarked) [NEC1]	did not rescue cell growth				
Cc1ccc(NC(=O)c2cccc(C(C)(C)C#N)c2)cc1Nc1ccc2ncn(C)c(=O)c2c1 [AZ-628]					sensitivity of colony growth to RAF dimer inhibition ([2]; ARAF ablation in RASK (KRAS) mutant cells): sensitized cells to RAF dimer inhibition; sensitivity of colony growth to RAF dimer inhibition ([2]; BRAF ablation in RASK (KRAS) mutant cells): less sensitive to RAF dimer inhibition
COC(=O)C[C@H](NC(=O)[C@H](C)NC(=O)[C@@H](NC(=O)OCc1ccccc1)C(C)C)C(=O)CF [Z-VAD-FMK] (Cbz-Val-Ala-Asp(OMe)-CH2F)	did not rescue cell growth				
O=C(c1ccc(F)c(F)c1Nc1ccc(I)cc1F)N1CC(O)([C@@H]2CCCCN2)C1 [GDC-0973]		limited cell survival	promoted cell survival	induced suppression of ERK downstream substrates	preferential RAF dimer association of CRAF wild-type (PIKES) [3]: promoted increased CRAF: BRAF dimers in comparison to CRAF: ARAF dimers; effect on MAPK signaling (pMEK, pERK Western blot) (MAPK signaling): suppresses MAPK signaling; RAF heterodimers co-immunoprecipitated with FLAG-CRAF (RAF1:BRAF heterodimers): enriched for RAF1:BRAF heterodimers
Cn1nccc1Nc1nccc(-c2ccn([C@H](CO)c3ccc(Cl)c(F)c3)c(=O)c2)n1 [GDC-0994]		limited cell survival	promoted cell survival	induced suppression of ERK downstream substrates	
